This is an account of results in patent US20240384268A1, “Oligonucleotides” (Hudson Institute of Medical Research, priority 2021, published 2024).

In this data set the target is cGAS (Homo sapiens, UniProt Q8N884). Nature of the data set: ISD70-driven IP-10 production in HT-29 cells, ELISA. The arrangement: endogenous in cells. It is filed as cell-based. The following applies: 187.5 nM ASO overnight, ISD70 24 h. A general note: ELISA stands for enzyme-linked immunosorbent assay.

d = 2'-deoxy (DNA); m = 2'-O-methyl

Sequence of cGAS (Q8N884 whole entry): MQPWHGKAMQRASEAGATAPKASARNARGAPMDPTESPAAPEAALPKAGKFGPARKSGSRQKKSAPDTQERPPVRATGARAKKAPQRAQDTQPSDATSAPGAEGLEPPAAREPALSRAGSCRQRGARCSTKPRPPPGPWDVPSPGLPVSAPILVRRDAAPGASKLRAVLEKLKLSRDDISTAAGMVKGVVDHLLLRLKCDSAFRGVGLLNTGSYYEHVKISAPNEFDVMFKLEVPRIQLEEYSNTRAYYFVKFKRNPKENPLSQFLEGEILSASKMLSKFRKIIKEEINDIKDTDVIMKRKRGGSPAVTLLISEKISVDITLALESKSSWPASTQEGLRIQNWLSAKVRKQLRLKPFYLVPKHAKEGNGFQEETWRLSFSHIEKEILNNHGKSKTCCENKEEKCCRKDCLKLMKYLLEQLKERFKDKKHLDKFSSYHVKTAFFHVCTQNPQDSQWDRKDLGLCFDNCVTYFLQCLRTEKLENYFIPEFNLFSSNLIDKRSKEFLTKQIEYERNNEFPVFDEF

Turning to “mG*mC*mA*mG*mU*C*T*C*C*A*T*G*T*C*C*mC*mA*mG*mG*mC (GCAGUCTCCATGTCCCAGGC; antisense; sugars from the 5' end m5 d10 m5, all phosphorothioate, methylation of C not given here) [[CDKN2B-AS1]2234]”, the “inhibition of ISD70-dependent IP-10 production (in words)” value is reported as “robustly inhibited ISD70-dependent IP-10 production”.
